The values that follow come from patent US12291553B2, “Non-opioid anti-pain medication” (priority 2020, dated 2025).

Series [1] concerns the target T1, FGF13-1b:Nav1.6 C-tail complex (Homo sapiens, UniProt Q9UQD0).
T1 construct: luciferase fragment (split-luciferase half); expressed in transfected cells
Briefly: Split-luciferase complementation assay (LCA), FGF13-1b:Nav1.6 C-tail complex. Conditions: LCA dose response, normalized to 0.5% DMSO; read-out: IC50, prevention of FGF13:Nav1.6 complex assembly. The class given is cell-based.
Description: In-cell reconstitution of FGF13: Nav1.6 complexes using the split-luciferase assay. […] B. Luminescence-based complementation assay (LCA) of the FGF13-1a:Nav1.6 (solid dots) and FGF13-1b:Nav1.6 C-tail complex (open dots); control conditions are depicted in black; corresponding dark red dots refer to LCA complexes in the presence of the tyrosine kinase inhibitor MNS used as negative control.

The target of the next series is T2, FGF13-1a:Nav1.6 (Homo sapiens, UniProt Q9UQD0).
T2 construct: luciferase fragment (split-luciferase half); expressed in transfected cells
Put plainly: Split-luciferase complementation assay (LCA), FGF13-1a:Nav1.6 complex. The class given is cell-based. Conditions: LCA dose response, normalized to 0.5% DMSO. From the text: FIG. 2. In-cell reconstitution of FGF13: Nav1.6 complexes using the split-luciferase assay. A. Principle of split-luciferase assay. B. Luminescence-based complementation assay (LCA) of the FGF13-1a:Nav1.6 (solid dots) and FGF13-1b:Nav1.6 C-tail complex (open dots); control conditions are depicted in black; corresponding dark red dots refer to LCA complexes in the presence of the tyrosine kinase inhibitor MNS used as negative control. C,D. Summary bar graphs depicting assay robustness with respective Z′ score calculations for each LCA complex.
(§1) FIG. 3. PW164 inhibits FGF13-1b but not FGF13-1a binding to the Nav1.6 C-tail. […] Data are normalized with respect to 0.5% DMSO (vehicle). (C) PW164 has no effect on full length luciferase in transiently transfected HEK293 cells. (D) PW164 is not toxic toward HEK293 cells using the LDH cytotoxicity assay.

The target in the next series is T3, full length luciferase (Photinus pyralis, UniProt P08659).
T3 construct: PW164 has no effect on full length luciferase in transiently transfected HEK293 cells; expressed in transfected cells; host or cells: HEK293
Put plainly: Full length luciferase counter-screen in transiently transfected HEK293 cells. The series is classed as cell-based.
Description: as §1
Background: A counterscreen serves to expose hits that act by an unwanted route or on another target.

For a further series, the system named is HEK293 cells. The series is classed as cell-based.
Description: as §1

The next series has as its target T4, Nav1.6 (Homo sapiens, UniProt Q9UQD0).
T4 construct: expressed in transfected cells; host or cells: HEK-Nav1.6 cells
Briefly: Patch-clamp, Na+ transient currents in HEK-Nav1.6 cells. The class given is cell-based. Conditions: 50 μM. The method, then: FIG. 5. […] A. Representative traces of Na+ transient currents (INa+) recorded from HEK-Nav1.6 cells transiently expressing the indicated constructs in response to depolarizing voltage steps in the presence of 50 μM PW164 or DMSO. B. Current-voltage relationship (I-V) derived from A. C. Summary bar graphs derived from A,B. Data are represented as mean±SEM; n=4-8 cells per group. *p<0.05; One-WAY ANOVA, post-hoc Bonferroni.
(§2) Based on the success of other PPI regulators targeting ion channels we used the same rationale of selecting compounds that could act as a FGF13 isoform specific blocking FGF13-1b isoform effects mimicking FGF13-1a and select PW164 for functional assays. We used patch-clamp electrophysiology and begun functional validation of the lead compound using a panel of biophysical protocols targeting Nav channels (FIG. 5, 6).
(In general: In patch-clamp work, channel activity is measured electrically.)

The target of the next series is T5, FGF13-1b:Nav1.6 channel (Homo sapiens, UniProt Q9UQD0).
T5 construct: expressed in transfected cells; host or cells: HEK-Nav1.6 cells
Briefly: Patch-clamp, steady-state inactivation in HEK-Nav1.6 cells expressing FGF13-1b. The series is classed as cell-based. The method, then:
FIG. 6. […] HEK-Nav1.6 cells were transiently expressing GFP, FGF13-1b-GFP or FGF13-1a-GFP in the presence of DMSO (blue, red and dark red) 50 μM PW164 (black, green, dark green) A, Normalized current as a function of voltage (voltage dependence of steady-state inactivation) with Boltzmann fitting B Bar graph represents V1/2 of steady state inactivation. C. Normalized conductance (G/Gmax) as a function of voltage (voltage dependence of activation) with Boltzmann fitting. D. Bar graph represents V1/2 of activation. Data are represented as mean±SEM; n=4-8 cells per group. **p<0.01; One-WAY ANOVA, post-hoc Bonferroni.
as §2

Series [2] concerns capsaicin-induced mechanical hypersensitivity. Briefly: Capsaicin-induced pain model, von Frey mechanical hypersensitivity. The series is classed as in vivo, mice.
Series [3] deals with mechanical hypersensitivity at the surgical wound. Put plainly: Plantar incision model of post-operative pain. The class given is in vivo, mice. Conditions: administered to the wound, 3 μL. An excerpt:
FIG. 10. […] After plantar incision, mice develop profound mechanical hypersensitivity to LVF at the surgical wound (scheme).

Series [4] can be described thus: DMPK profile, oral and intravenous dosing. The series is classed as in vivo. As to conditions: oral 20 mg/kg, mouse.
Description: Relevant parameters such as half-time (t1/2), maximal concentration (Cmax), area under the curve (AUC), apparent volume of distribution at steady state (Vss), clearance (CL) and bioavailability (% F) were calculated in a mouse model.
For series [5], the target named is human cardiac ERG channel (hERG) (Homo sapiens, UniProt Q12809). Briefly: hERG channel activity. The method, then:
(§3) FIG. 12. In vitro studies of PW164 plasma and blood metabolic stability in rodent and preclinical human models. Intestinal absorption using the P-glycoprotein (P-gp) inhibition (IC50) assay as well as activity against the human cardiac ERG channel (hERG) as well as liver toxicity tests against various isoforms of the cytochrome P450 were conducted. […] This might be favorable for peripheral therapeutics with the advantage of no brain-associated side toxicity effects.
For orientation: hERG is a cardiac potassium channel; its block is linked to QT prolongation.

Another series deals with cytochrome P450. Briefly: Cytochrome P450 isoform tests. The class given is in vitro ADME. Conditions: various isoforms. The method, then:
as §3

Series [6] is described as follows: Plasma metabolic stability. The series is classed as in vitro ADME. The method, then:
as §3

A further series is described as follows: Whole blood stability. The series is classed as in vitro ADME. As for the experimental part: as §3
Series [7] deals with normal mechanical sensitivity. As to conditions: mouse, in vivo.
Description: (§4) Schemes illustrate the experimental design testing the effect of local and intrathecal PW164 on normal mechanical sensitivity (left) and capsaicin-induced mechanical hypersensitivity (right), respectively. […] Drugs were given at the indicated concentrations in a final injected volume of 3 ul (A) or 5 ul (B); in panel B, drugs were injected 30 min after Cap injection.
(§5) In animals, hypersensitivity is manifested as increased withdrawals from von Frey filament stimulations of the injection site (FIG. 7).
Series [8] concerns normal mechanical sensitivity. Put plainly: Normal mechanical sensitivity, von Frey stimulation of normal skin. As to conditions: intraplantar injection, 3 ul.
Description: as §4, §5

In general, IC50 refers to the concentration needed to halve the response being measured.

Like-named read-outs stand apart in the source and are kept apart here. Residues, ends and D or L forms follow the SMILES beside them. *: point of attachment. Cbz = O=C(OCc1ccccc1)*; OtBu = CC(C)(C)O*

T5 sequence (Q9UQD0 whole entry): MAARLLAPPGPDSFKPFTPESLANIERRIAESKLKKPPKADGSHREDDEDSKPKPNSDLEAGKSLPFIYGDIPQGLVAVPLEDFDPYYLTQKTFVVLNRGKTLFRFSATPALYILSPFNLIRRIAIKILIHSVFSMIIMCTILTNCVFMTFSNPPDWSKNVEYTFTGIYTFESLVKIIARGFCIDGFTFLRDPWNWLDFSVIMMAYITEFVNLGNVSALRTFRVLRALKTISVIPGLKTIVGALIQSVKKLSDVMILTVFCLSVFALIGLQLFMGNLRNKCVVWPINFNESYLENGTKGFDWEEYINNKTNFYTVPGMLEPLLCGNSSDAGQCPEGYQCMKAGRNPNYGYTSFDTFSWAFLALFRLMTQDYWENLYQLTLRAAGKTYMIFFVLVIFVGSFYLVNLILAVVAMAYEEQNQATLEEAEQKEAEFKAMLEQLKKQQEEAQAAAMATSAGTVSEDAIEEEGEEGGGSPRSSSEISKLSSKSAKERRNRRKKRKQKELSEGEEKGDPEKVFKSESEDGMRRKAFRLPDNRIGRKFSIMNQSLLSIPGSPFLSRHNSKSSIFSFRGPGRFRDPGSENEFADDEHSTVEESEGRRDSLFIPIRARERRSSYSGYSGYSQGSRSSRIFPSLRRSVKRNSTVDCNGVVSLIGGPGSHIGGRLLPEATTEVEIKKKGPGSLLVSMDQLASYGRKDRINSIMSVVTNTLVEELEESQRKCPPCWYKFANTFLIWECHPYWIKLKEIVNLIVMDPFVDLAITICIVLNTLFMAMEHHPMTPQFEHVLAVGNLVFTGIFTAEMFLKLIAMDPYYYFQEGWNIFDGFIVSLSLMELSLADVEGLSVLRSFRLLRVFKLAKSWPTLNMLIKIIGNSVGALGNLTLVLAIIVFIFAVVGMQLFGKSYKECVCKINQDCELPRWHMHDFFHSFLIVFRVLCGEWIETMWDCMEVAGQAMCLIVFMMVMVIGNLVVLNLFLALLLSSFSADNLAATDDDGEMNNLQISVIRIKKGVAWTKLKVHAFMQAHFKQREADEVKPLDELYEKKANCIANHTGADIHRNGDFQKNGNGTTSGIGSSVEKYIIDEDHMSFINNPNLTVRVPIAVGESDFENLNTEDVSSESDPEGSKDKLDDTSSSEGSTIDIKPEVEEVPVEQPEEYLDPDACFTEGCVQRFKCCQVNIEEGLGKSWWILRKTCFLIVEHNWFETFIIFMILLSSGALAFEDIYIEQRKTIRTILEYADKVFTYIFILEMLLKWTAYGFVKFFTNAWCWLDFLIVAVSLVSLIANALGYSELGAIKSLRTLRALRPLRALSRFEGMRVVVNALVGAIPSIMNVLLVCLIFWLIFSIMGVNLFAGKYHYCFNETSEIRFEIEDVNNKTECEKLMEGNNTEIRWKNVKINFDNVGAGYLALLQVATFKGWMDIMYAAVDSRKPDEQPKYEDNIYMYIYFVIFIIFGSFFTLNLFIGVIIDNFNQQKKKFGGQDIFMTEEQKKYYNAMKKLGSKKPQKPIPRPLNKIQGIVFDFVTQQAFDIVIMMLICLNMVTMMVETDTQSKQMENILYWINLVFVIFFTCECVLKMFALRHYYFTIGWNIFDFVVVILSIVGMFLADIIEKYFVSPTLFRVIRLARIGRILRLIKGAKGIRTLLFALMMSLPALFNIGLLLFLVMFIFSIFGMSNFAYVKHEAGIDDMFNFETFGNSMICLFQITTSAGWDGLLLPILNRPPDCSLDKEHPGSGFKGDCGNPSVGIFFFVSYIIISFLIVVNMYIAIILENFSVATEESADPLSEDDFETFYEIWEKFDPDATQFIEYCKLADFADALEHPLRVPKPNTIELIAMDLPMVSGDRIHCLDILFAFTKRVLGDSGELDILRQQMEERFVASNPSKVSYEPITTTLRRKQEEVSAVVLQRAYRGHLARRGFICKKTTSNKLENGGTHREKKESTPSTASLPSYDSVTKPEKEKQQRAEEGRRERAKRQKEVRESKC
Chain of human cardiac ERG channel (hERG) (Q12809 whole entry, canonical isoform): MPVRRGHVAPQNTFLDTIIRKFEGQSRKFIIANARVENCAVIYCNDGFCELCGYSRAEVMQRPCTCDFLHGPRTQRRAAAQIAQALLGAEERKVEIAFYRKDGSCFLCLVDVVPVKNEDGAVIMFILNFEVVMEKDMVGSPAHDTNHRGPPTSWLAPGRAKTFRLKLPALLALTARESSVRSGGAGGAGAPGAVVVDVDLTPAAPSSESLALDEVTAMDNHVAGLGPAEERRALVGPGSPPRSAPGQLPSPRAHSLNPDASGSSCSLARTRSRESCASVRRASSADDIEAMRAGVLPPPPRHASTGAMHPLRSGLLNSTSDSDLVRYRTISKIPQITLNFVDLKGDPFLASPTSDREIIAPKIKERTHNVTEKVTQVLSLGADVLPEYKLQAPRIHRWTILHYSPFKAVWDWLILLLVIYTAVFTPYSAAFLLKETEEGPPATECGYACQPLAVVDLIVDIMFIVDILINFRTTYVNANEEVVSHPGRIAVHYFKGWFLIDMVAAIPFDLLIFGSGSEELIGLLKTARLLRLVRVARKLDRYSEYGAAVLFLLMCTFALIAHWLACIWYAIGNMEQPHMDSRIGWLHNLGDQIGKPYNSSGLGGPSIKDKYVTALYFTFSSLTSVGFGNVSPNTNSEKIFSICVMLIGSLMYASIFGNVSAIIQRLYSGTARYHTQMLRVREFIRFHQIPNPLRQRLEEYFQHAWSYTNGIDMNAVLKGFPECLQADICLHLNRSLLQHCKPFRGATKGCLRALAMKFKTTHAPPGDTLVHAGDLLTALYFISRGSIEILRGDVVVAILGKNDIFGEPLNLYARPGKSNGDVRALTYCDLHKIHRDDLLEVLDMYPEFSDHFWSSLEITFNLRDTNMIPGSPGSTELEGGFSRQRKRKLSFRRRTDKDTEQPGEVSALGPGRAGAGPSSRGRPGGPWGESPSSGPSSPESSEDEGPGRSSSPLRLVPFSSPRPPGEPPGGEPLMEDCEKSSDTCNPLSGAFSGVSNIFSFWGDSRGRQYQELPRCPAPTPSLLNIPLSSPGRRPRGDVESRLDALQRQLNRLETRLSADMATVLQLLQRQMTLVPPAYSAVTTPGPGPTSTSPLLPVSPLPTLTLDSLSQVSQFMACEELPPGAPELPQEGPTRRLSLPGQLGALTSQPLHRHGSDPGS
T2 sequence (Q9UQD0 1763-1980 limits assumed): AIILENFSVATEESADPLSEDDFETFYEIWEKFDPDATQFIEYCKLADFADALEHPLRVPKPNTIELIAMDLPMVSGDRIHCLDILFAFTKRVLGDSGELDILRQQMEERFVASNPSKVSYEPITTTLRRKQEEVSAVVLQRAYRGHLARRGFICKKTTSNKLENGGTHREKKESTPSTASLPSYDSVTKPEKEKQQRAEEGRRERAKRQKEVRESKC
T1 sequence (Q9UQD0 1763-1980 limits assumed, one chain of several): as the sequence (Q9UQD0 1763-1980 limits assumed) above
T3 sequence (P08659 whole entry, species assumed): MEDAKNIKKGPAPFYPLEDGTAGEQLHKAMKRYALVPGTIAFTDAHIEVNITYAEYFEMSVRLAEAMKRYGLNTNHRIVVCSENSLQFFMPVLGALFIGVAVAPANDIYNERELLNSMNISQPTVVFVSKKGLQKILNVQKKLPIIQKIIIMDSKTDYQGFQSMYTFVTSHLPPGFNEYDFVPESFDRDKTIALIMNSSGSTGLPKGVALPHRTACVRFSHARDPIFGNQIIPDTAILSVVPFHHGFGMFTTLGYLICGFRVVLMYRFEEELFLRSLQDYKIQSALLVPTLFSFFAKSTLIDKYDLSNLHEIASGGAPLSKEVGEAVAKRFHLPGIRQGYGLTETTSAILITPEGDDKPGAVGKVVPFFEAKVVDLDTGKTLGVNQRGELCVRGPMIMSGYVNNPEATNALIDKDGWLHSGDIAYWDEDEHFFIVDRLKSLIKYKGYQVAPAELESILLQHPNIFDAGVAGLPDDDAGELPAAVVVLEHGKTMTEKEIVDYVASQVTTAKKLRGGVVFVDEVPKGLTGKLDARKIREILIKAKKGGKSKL
T4 sequence (Q9UQD0 whole entry): as the sequence (Q9UQD0 whole entry) above

Take `COC(=O)[C@@H](NC(=O)[C@H](CCC(=O)OC(C)(C)C)NC(=O)[C@H](CC(C)C)NC(=O)[C@@H]1CCCN1C(=O)OCc1ccccc1)C(C)C` [PW164, Benzyl(S)-2-(((S)-1-(((S)-5-(tert-butoxy)-1-(((S)-1-methoxy-3-methyl-1-oxobutan-2-yl)amino)-1,5-dioxopentan-2-yl)amino)-4-methyl-1-oxopentan-2-yl)carbamoyl) pyrrolidine-1-carboxylate] (Cbz-PLE(OtBu)V-OMe): the IC50 in [1] is 17.8 µM. Further, at FGF13-1a:Nav1.6, the “Effect on FGF13-1A binding to Nav1.6” value is given as “does not have a significant effect”. Besides, the “Effect on full length luciferase” value on full length luciferase is reported as “no effect”. Further, the “Cytotoxicity (LDH)” value in the series on HEK293 cells was “not toxic”. Further, the “Effect on Na+ transient currents” value on Nav1.6 is listed as “acts as a FGF13-1a mimic on transient Na+ currents”. Further, at FGF13-1b:Nav1.6 channel (50 μM, HEK-Nav1.6 cells expressing FGF13-1b-GFP), the “Availability of FGF13-1b:Nav1.6 channel pool” value was “decreases availability”. For the same compound, the “Shift in V1/2 of steady-state inactivation” value on FGF13-1b:Nav1.6 channel (in the presence of FGF13-1b) is recorded as “hyperpolarizing shift”. Moreover, the Capsaicin-induced mechanical hypersensitivity entry in series [2] (intrathecal, 5 ul, 30 min after capsaicin) was “does not inhibit”. Besides, the “Duration of effect compared to bupivacaine” value in [2] (local injection at capsaicin site) was “longer-lasting effects without completely blocking mechanical sensation”. In addition, the “Mechanical hypersensitivity to LVF and HVF von Frey stimulation” value in series [2] (local injection at capsaicin site, 30 min after capsaicin, 3 ul) is “dose-dependently inhibits mechanical hypersensitivity”. Further, in series [3], the “Mechanical hypersensitivity to LVF at surgical wound” value was “inhibits the hypersensitivity”. Besides, the Oral bioavailability entry in series [4] (intravenous 10 mg/kg) is recorded as “moderate”. Besides, the Oral half-life result in series [4] is reported as “moderate”. In addition, in series [5], the hERG liability result was “no hERG and CYP450s liabilities”. In addition, the CYP450s liability entry in the series with cytochrome P450 is “no hERG and CYP450s liabilities”. In addition, in [6], the “Human plasma metabolic stability” value was “high”. Also, in “Whole blood stability”, the “Human whole blood stability” value is listed as “high”. For the same compound, in series [7], the “Normal mechanical sensation, paw withdrawal response to LVF and HVF” value is on record as “no changes in paw withdrawal response”.
Turning to `CCCCN1CCCCC1C(=O)Nc1c(C)cccc1C` (stereo not shown) [bupivacaine], the “Normal mechanical sensation, paw withdrawal response to LVF and HVF” value in [8] was “complete sensory block”.
